Entries after “also recorded” stand apart in the source; their conditions may differ.
Assays:
T47D cells [1] = experiment: Competition co-culture of shPSMD2-RFP and shControl-GFP T47D cells, FACS and microscopy; format: cell-based, human; conditions: 48 hours
Method: We created two cell lines—one line that expresses red fluorescent protein (turboRFP) and the doxycycline-inducible PSMD2-targeting shRNA and another line that expresses green fluorescent protein (GFP) and a doxycycline-inducible control shRNA (FIG. 6A). First, we induced shRNA expression with doxycycline for 48 hours. After recovery, we mixed shPSMD2-RFP and shControl-GFP cells at different ratios (either 1:1, 1:2, 1:5 or 1:10), adding the cells with reduced PSMD2 as the minority subpopulation. Twenty-four hours after plating, we treated these mixed populations of cells for 48 hours with increasing concentrations of bortezomib (5, 7.5 or 10 nM). We allowed the cells to recover in the absence of bortezomib and then we quantified the red and green cells by FACS analysis (FIG. 6A) and captured representative images by fluorescence microscopy (FIG. 6B).
The experiment described in Example 10 was repeated with minor differences using a panel of different proteasome inhibitors: MLN2238, MLN9708, and oprozomib T47D cells harboring a doxycycline inducible control shRNA (GFP) or a doxycycline-inducible PSMD2 shRNA (TurboRFP) were incubated with doxycycline for 3 days. Cells were collected, counted, and plated at a 1:10 ratio of TurboRFP-expressing PSMD2 shRNA cells/GFP expression control shRNA cells in the absence of Dox. Proteasome inhibitors were added at the specified concentrations and cells were maintained in culture. Cells were allowed to recover in the absence of the proteasome inhibitor and then analyzed by FACS (FIG. 8B, top) or visualized by microscopy (FIG. 8B, bottom). In the absence of proteasome inhibitors, the initial plating ratio of these cells (1:10) was maintained over the duration of the experiment (FIG. 8B). […] The effect was concentration-dependent in that higher concentrations elicited more substantial shifts.
cells were trypsinized in 100 μL Accumax® solution and further diluted into 100 μl PBSx1. The number of cells with red or green fluorescent proteins was measured by MACSQuant® VYB according to manufactures protocol. Images of RFP and GFP were created by overlaying images using Fiji software.

IMR32 and Kelly cells = experiment: CellTiter-Glo viability of IMR32 and Kelly neuroblastoma cells; format: cell-based; conditions: 0.001 um to 0.100 um; 72 hours
Method: IMR32 and Kelly cells were each cultured in the presence of bortezomib at concentrations ranging from 0.001 um to 0.100 um. […] The fold viability relative to culture in the absence of bortezomib was determined for each cell line.
The fold viability relative to culture in the absence of the compound was determined for each cell line.

T47D cells [2] = experiment: Cell viability of T47D cells with doxycycline-inducible PSMD2 shRNA; format: cell-based, human
Method: T47D cells harboring a doxycycline inducible control shRNA (GFP) or a doxycycline-inducible PSMD2 shRNA (TurboRFP) were incubated with doxycycline for 3 days. Cells were then split and grown in the absence of Dox and proteasome inhibitors were then added at various concentrations. Cells were maintained in culture and then counted.
For the generation of the T47D Tet-inducible PSMD2 knockdown cell line—the TRIPZ vector with an inducible shRNA targeting PSMD2 was purchased from Dharmacon (clone V3THS_403760). It was introduced to the T47D cells according to manufactures protocol and cells were selected with puromycin 1 μg/ml for one week. The cells were exposed to doxycycline for 24 hours and cells were FACS sorted for the top 10% of most RFP expressing cells (highest expression of shRNA). The cells were further cultured in the absence of doxycycline and PSMD2 knockdown was induced as specified in the relevant Examples.
Relative cell growth and survival were measured in 96-well microplate format in the shRNA experiments and in 384 well format in the drug toxicity assays, by using the fluorescent detection of resazurin dye reduction as an endpoint (544 nm excitation and 590 nm emission). 2,500 cells in 96 wells format or 1,000 cells in 384 well format were plated 24 hours before compound exposure (for 72 hours or indicated time). Each analysis was performed at least with three replicas.

[3] = tested on: relapsed multiple myeloma; experiment: Phase 2 and 3 clinical trials of bortezomib in relapsed multiple myeloma, stratified by sigma score; format: in vivo, human
Source text: We analyzed gene expression data from 135 patients with relapsed multiple myeloma who participated in Phase II or III trials of bortezomib (˜2007; Mulligan, G., Mitsiades, et al. (2007) Gene expression profiling and correlation with outcome in clinical trials of the proteasome inhibitor bortezomib. Blood 109, 3177-3188) and determined the sigma score for each cancer. The sigma score for each cancer (prior to treatment) was computed by comparing the expression of each 19S subunit (except PSMC4, which was not included in the analysis for technical reasons) in each cancer with the average expression of that subunit in the total set of cancers (reference level) and determining the number of standard deviations by which each expression level differed from the reference level.
Methods details: re-treatment gene expression data from relapsed multiple myeloma patients undergoing clinical trials with bortezomib were downloaded from GSE9782 (34). Gene expression data was RMA normalized and log transformed. Sigma scores were calculated from all probes. […] For each group, the time to relapse from bortezomib treatment was plotted as a Kaplan-Meier plot. P-value was calculated using Wilcoxon test.

CC(C)C[C@H](NC(=O)[C@H](Cc1ccccc1)NC(=O)c1cnccn1)B(O)O [bortezomib]
shift of surviving cell populations towards shPSMD2-RFP cells (T47D cells [1]; 5 nM, ratios 1:1, 1:2, 1:5, 1:10): substantially shifted the populations of surviving cells
shift of surviving cell populations towards shPSMD2-RFP cells (T47D cells [1]; 7.5 nM and 10 nM): even more substantial shifts
resistance of IMR32 cells relative to Kelly cells (IMR32 and Kelly cells): increased resistance
resistance upon doxycycline-induced reduction of PSMD2 (T47D cells [2]; PSMD2 shRNA versus control): significantly increased resistance; also recorded: increase in resistance
resistance of cells harboring the PSMD2 shRNA versus parental line (EC50) (T47D cells [2]; doxycycline 3 days, 96 hour culture): considerably more resistant
time to progression ([3]; 34 patients with reduced expression of at least one 19S subunit versus patients without, p-value=0.0086): shortened time to progression
progression-free survival ([3]; patients with 3-Sigma disease versus sigma score less than 3): Reduced Progression-Free Survival
effectiveness over dexamethasone control ([3]; patients with reduced expression of 19S proteasome subunit(s)): no significant effectiveness over the dexamethasone control

Reference: patent publication US11092602B2, “Methods and compositions relating to proteasome inhibitor resistance” (Whitehead Institute for Biomedical Research, priority 2015, dated 2021)
